Active and inactive are the calls of the source. The rule behind the calls is not given here.
Tested on: not listed separately
Assay: HeLa cell cytotoxicity, dose response, cytotoxicity control, 48 h, plate reader, cherry-picks, set 2 (AID 504944)
Details: HeLa cytotoxicity, plate reader, 48 h; at 13.5 µM (top of the series)

Row | Compound | activity change, negative = toxicity
1 | COc1ccc(C2=C(C=O)Cc3ccccc3O2)cc1 | 0.173% (inactive)

Same assay, conditions: HeLa cytotoxicity, plate reader, 48 h; at 38 µM (top of the series)

Row | Compound | activity change, negative = toxicity
2 | CCOC(=O)c1ccc(N2Cc3ccccc3C2=N)cc1 | -10.6% (inactive)
3 | O=[N+]([O-])c1ccc(N2CCCCC2)nc1 | -0.44% (inactive)
4 | O=C1C2C3C=CC(C4CC34)C2C(=O)N1Cc1ccco1 (centres undefined) | -2.48% (inactive)
5 | COc1ccc(/C(C#N)=C/c2cccnc2)cc1 | -8.3% (inactive)
6 | Clc1ccc2scc(CN3CCCC3)c2c1 | -10.3% (inactive)
7 | Cc1ccc(S(=O)c2ccc(C)cc2)cc1 | -9.53% (inactive)
8 | COc1ccccc1C(C#N)c1cccc(Cl)n1 (centres undefined) | -0.092% (inactive)
9 | O=C1C2C(C(=O)N1Cc1ccco1)C1C=CC2C12CC2 (centres undefined) | -4.39% (inactive)
10 | CCCNS(=O)(=O)c1ccc(OC)c(Cl)c1Cl | -2.35% (inactive)
11 | COc1ccc(CNCc2cccc(Cl)c2)cc1 | 3.92% (inactive)
12 | CC(C)(C)NC(=O)c1cc(Cl)ccc1[N+](=O)[O-] | -2.21% (inactive)
13 | Cc1cc(C)nc(N(C#N)Cc2ccccc2)n1 | 2.63% (inactive)
14 | O=C(NC1CCS(=O)(=O)C1)c1cccc(Br)c1 (centres undefined) | -1.62% (inactive)
15 | CC(C)N=C(NC#N)SCc1ccccc1F | 0.214% (inactive)
16 | Cc1ccc(S(=O)(=O)NCCC(C)C)cc1[N+](=O)[O-] | -2.87% (inactive)
17 | O=C(NC1CCCC1)c1cccc(Cl)c1 | 2.48% (inactive)
18 | Cc1cc(NC(=O)c2cc([N+](=O)[O-])cc([N+](=O)[O-])c2C)no1 | -10.2% (inactive)
19 | Cc1cc(NC(=O)c2c(F)c(F)c(F)c(F)c2F)no1 | -10.1% (inactive)
20 | N#CC(c1ccc(Cl)nn1)c1ccccc1Cl (centres undefined) | -3.51% (inactive)
21 | Cc1cc(S(=O)(=O)NCC2CC2)c(Cl)cc1Cl | -4.01% (inactive)
22 | O=C1N[C@@H](Cc2ccccc2)[C@@H](c2ccco2)O1 | -3.87% (inactive)
23 | COc1ccc(N2CCN(C(=O)c3ccc(Br)o3)CC2)cc1 | -5.84% (inactive)

Row | Compound | activity change, negative = toxicity
24 | OC(c1cccc(Cl)c1)c1nccc2ccccc12 (centres undefined) | -10.8% (inactive)
25 | O=C(NC1CCCC1)c1cc(Cl)ccc1[N+](=O)[O-] | -2.55% (inactive)
26 | Cn1cccc1C(C#N)c1cccc(F)c1C#N (centres undefined) | -11.4% (inactive)
27 | CCOc1ccc(CNC2CCCc3ccccc32)cc1 (centres undefined) | -11.3% (inactive)
28 | N#CC(c1ccccc1)c1cccc(Cl)n1 (centres undefined) | 1.47% (inactive)
29 | CCNC(=O)COc1ccc2ccccc2c1 | -6.43% (inactive)
30 | Cc1cc(C)nc(N(C#N)Cc2cccc([N+](=O)[O-])c2)n1 | -8.51% (inactive)
31 | COc1ccc(C(C#N)c2ccc(Cl)nn2)cc1 (centres undefined) | 8.42% (inactive)
32 | C#CCSc1ncc(-c2ccccc2)cn1 | -4.45% (inactive)
33 | N#CC(c1ccc(Cl)nn1)c1ccc(Cl)cc1Cl (centres undefined) | -7.39% (inactive)
34 | Cn1cccc1C(C#N)c1ccccc1C#N (centres undefined) | -10.8% (inactive)
35 | COC(=O)c1cc(-c2ccc(OC)cc2)on1 | 4.16% (inactive)
36 | N#Cc1cc(-c2ccccc2)cnc1Cl | -4.08% (inactive)
37 | Cc1ccc(C)c(S(=O)(=O)NC2CCSC2=O)c1 (centres undefined) | -5.62% (inactive)
38 | O=S1(=O)CCOC[C@H](c2ccccc2)N1Cc1cccc(Cl)c1 | -9.16% (inactive)
39 | COC(=O)c1ccc(OC(=O)c2ccco2)cc1 | -11.8% (inactive)
40 | CCOC(=O)c1ccc(-c2ccc(C=O)o2)cc1 | 0.584% (inactive)
41 | Cc1cc(NC(=O)Nc2ccccc2[N+](=O)[O-])no1 | -12.9% (inactive)
42 | CCOc1ccc(-n2cccc2C=O)cc1 | -8.05% (inactive)
43 | O=C(c1cccc([N+](=O)[O-])c1)N1CC2C3C=CC(C3)C2C1 (centres undefined) | -2.29% (inactive)
44 | Nc1ccc(OCc2ccccc2)cc1[N+](=O)[O-] | -5.72% (inactive)
45 | O=C1C=C(c2cccc(Cl)c2)C[C@@H](c2ccc(F)cc2)C1 | -19.4% (inactive)

Row | Compound | activity change, negative = toxicity
46 | CSC1=N/C(=C\C=C\c2cccs2)C(=O)S1 | -8.63% (inactive)
47 | O=CNC1(c2ccccc2)CCCCC1 | -10.5% (inactive)
48 | CCOC(=O)N1CCN(c2ccc(Cl)cc2)CC1 | 5.84% (inactive)
49 | Cc1cccc(C(C#N)c2ccc(Cl)nn2)c1 (centres undefined) | -0.066% (inactive)
50 | CCCCCC1CC(COc2ccccc2)OC1=O (centres undefined) | -3.8% (inactive)
51 | CCOC(=O)CCCn1ncn2c(cc3occc32)c1=O | -0.83% (inactive)
52 | N#CC(c1ccc(Cl)cc1)c1ccc(Cl)nn1 (centres undefined) | -11% (inactive)
53 | N#CCn1c(C2CCCCC2)nc2ccccc2c1=O | 0.099% (inactive)
54 | N#CC(c1ccc(Cl)cc1)c1ncc(C(F)(F)F)cc1Cl (centres undefined) | -15% (inactive)
55 | O=[N+]([O-])c1ccc(N2CCCCC2)cc1 | -9.13% (inactive)
56 | O=C(NC1CCCCCCC1)c1cccc(Cl)c1 | -22.5% (inactive)
57 | COC(=O)c1ccc(OC(=O)c2cccs2)cc1 | -10.9% (inactive)
58 | N#CN(Cc1ccccc1)Cc1ccccc1 | 2.47% (inactive)
59 | O=C1C=C(c2cc(F)ccc2F)C[C@@H](c2ccc(F)cc2)C1 | -9.01% (inactive)
60 | CSc1nnc(-c2ccc([N+](=O)[O-])cc2)o1 | -10.7% (inactive)
61 | CCOC(=O)c1ccc(-c2ccc(CO)o2)cc1 | -14.8% (inactive)
62 | O=[N+]([O-])c1ccc(-c2cccnc2)cc1 | -9.26% (inactive)
63 | CCOC(=O)CC(C#N)c1cn(C)c2ccccc12 (centres undefined) | -3.91% (inactive)
64 | O=[N+]([O-])c1ccc(N2CCCC2)nc1 | -3.24% (inactive)
65 | N#CC(c1ccc(Cl)nn1)c1c(F)cccc1Cl (centres undefined) | -4.99% (inactive)
66 | N#CC(Sc1ccccn1)c1ccc(Cl)cc1 (centres undefined) | -11% (inactive)
67 | O=C(NCC1CC1)c1cc([N+](=O)[O-])cc([N+](=O)[O-])c1 | 5.69% (inactive)

Row | Compound | activity change, negative = toxicity
68 | O=CN(c1ccccc1)c1ccc2ccccc2c1 | -5.5% (inactive)
69 | N#CC(c1cccc(Cl)c1)c1ncc(C(F)(F)F)cc1Cl (centres undefined) | -12.5% (inactive)
70 | CC(C)CCNC(=O)c1cccc(Cl)c1 | -10.7% (inactive)
71 | COC(=O)c1ccc(NC(=S)N2CCCC2)cc1 | 0.525% (inactive)
72 | COc1ccc(/C=C/C(=O)c2ccoc2)cc1 | -17.6% (inactive)
73 | COc1ccc(N=C(C)C2=C(O)CSC2=O)cc1 | 5.59% (inactive)
74 | COC(=O)c1cc(-c2ccc(Br)cc2)on1 | -9.19% (inactive)
75 | N#CC1C(C#N)C2CCC1C1C2N1c1ccccc1 (centres undefined) | -9.52% (inactive)
76 | Clc1ccc2scc(CN3CCCCC3)c2c1 | -2.59% (inactive)
77 | Cc1cccc(NC(=O)Nc2cc(C)on2)c1 | -3.2% (inactive)
78 | Cc1ccc2scc(CN3CCCC3)c2c1 | -3.48% (inactive)
79 | Cc1ccc(C(C#N)c2ccc(Cl)nn2)cc1 (centres undefined) | -10.6% (inactive)
80 | Clc1cccc(CNCCCSc2ncccn2)c1 | -1.31% (inactive)
81 | CCOC(=O)c1cc2c(s1)-c1c(C)cccc1OC2 | -10.8% (inactive)
82 | CCOC1=CC(=O)OC(c2ccccc2)C1 (centres undefined) | -12.2% (inactive)
83 | Cn1cccc1C(=O)OCc1cc(-c2ccco2)on1 | 0.43% (inactive)
84 | C=CCOC(=O)c1ccc(-n2cnc(C)n2)nc1 | -2.17% (inactive)
85 | N#CC(c1ccc(Cl)cc1)c1cccc(Cl)n1 (centres undefined) | -6.14% (inactive)
86 | CCC(C)NS(=O)(=O)c1ccc(OC)c(Cl)c1Cl (centres undefined) | -10.1% (inactive)

Tested on: HeLa cytotoxicity, plate reader, 48 h
Assay: as above
Details: not given

Row | Compound | AC50 [µM]
87 | CO/N=C/c1cn(-c2ccc(Cl)cc2)nn1 | 22.3
88 | COC(=O)c1ccc(/C=C(\C#N)c2ccccn2)cc1 | 29
89 | O=C(Nc1ncc([N+](=O)[O-])s1)c1cccc([N+](=O)[O-])c1 | 14.3
90 | O=CC1=C(c2ccccc2)Oc2ccccc2O1 | 20.6
91 | Cc1ccc2nc(-c3ccc4c(c3)OCCO4)cn2c1 | 22.3
92 | Cc1cc(NC(=O)c2cc([N+](=O)[O-])ccc2Cl)no1 | 29.1
93 | CCOC(=O)/C=C(\C)Sc1cc(=O)oc2ccccc12 | 23.9
94 | N#C/C(=C/c1ccco1)c1nc2ccccc2s1 | 24.4

— PubChem BioAssay AID504944 (Broad Institute, 2011)
